The assay addresses CDK7/CycH/MNAT1 (Homo sapiens (Human), UniProt P50613). Kind of assay: Biochemical assay for CDK7 (TR-FRET kinase assay). The settings on record: for inhibition at 10 µM: read-out: % inhibition @ 10 μM. An outline of the steps: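 CDK7/CycH/MNAT1 (5 nM) was preincubated with compound for 60 min at room temperature, then reacted for 60 min with 100 nM ULight-MBP and 1 mM ATP in 1% DMSO. Irreversibility was probed with 20, 60 and 180 min preincubations.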
A general note: In TR-FRET formats the signal depends on donor and acceptor labels being close together.

Setting [1] is: 10 μM compound, 60 min pre-incubation, 1 mM ATP.
The mark [2] stands for this setting: 60 min pre-incubation, 1 mM ATP, read-out: IC50.

Molecules are shown by their SMILES. pIC50: −log10 of the molar value. Like-named read-outs stand apart in the source and are kept apart here.

Sequence of CDK7/CycH/MNAT1 (P50613 whole entry): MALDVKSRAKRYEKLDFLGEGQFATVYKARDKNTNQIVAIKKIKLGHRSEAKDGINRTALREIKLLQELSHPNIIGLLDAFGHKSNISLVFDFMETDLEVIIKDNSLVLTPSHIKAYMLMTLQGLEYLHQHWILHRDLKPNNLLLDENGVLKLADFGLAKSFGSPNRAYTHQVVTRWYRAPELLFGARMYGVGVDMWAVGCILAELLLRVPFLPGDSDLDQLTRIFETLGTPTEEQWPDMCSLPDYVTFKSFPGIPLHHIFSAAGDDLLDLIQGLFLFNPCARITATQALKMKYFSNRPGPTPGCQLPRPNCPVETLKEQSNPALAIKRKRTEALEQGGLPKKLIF
Sequence of CDK7/CycH/MNAT1 (P51946 whole entry partner): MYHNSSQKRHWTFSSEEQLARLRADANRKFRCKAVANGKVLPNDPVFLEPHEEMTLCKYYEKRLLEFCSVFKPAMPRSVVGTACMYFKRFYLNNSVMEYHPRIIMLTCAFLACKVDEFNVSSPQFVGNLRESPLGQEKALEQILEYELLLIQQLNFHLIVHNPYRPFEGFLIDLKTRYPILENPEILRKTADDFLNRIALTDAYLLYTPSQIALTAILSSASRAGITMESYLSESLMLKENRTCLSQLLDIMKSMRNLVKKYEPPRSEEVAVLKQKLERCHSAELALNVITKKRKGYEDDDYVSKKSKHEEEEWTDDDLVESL
Sequence of CDK7/CycH/MNAT1 (P51948 whole entry partner): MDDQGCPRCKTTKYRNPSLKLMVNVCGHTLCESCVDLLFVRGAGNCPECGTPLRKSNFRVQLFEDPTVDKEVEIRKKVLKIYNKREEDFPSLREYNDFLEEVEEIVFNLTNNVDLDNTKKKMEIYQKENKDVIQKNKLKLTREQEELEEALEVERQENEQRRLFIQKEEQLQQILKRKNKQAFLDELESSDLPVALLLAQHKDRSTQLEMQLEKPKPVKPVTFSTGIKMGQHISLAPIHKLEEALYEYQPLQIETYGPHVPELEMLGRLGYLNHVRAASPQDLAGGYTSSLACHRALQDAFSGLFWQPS

Turning to `CC(C)c1cnn2c(NCc3cc(F)cc(NC(=O)C4CCN(C(=O)/C=C/CN(C)C)C4)c3)nc(NC3CCOCC3)nc12` (centres unmarked) [Compound 71, (E)-1-(4-(dimethylamino)but-2-enoyl)-N-(3-fluoro-5-(((8-isopropyl-2-((tetrahydro-2H-pyran-4-yl)amino)pyrazolo[1,5-a][1,3,5]triazin-4-yl)amino)methyl)phenyl)pyrrolidine-3-carboxamide], under setting [1], the inhibition at 10 µM worked out at 92%. In addition, under setting [2], the pIC50 is 6.00 to 6.52.

In the case of `CC(C)c1cnn2c(NC(C)c3cccc(NC(=O)C4CCCN(C(=O)/C=C/CN(C)C)C4)c3)nc(NC3CCOCC3)nc12` (centres unmarked) [Compound 72, (E)-1-(4-(dimethylamino)but-2-enoyl)-N-(3-(1-((8-isopropyl-2-((tetrahydro-2H-pyran-4-yl)amino)pyrazolo[1,5-a][1,3,5]triazin-4-yl)amino)ethyl)phenyl)piperidine-3-carboxamide], the inhibition at 10 µM under setting [1] came out at 84%. Besides, the pIC50 under setting [2] was 6.00 to 6.52.

Turning to `CC(C)c1cnn2c(NCc3cccc(NC(=O)C4COCCN4C(=O)/C=C/CN(C)C)c3)nc(NC3CCOCC3)nc12` (centres unmarked) [Compound 73, (E)-4-(4-(dimethylamino)but-2-enoyl)-N-(3-(((8-isopropyl-2-((tetrahydro-2H-pyran-4-yl)amino)pyrazolo[1,5-a][1,3,5]triazin-4-yl)amino)methyl)phenyl)morpholine-3-carboxamide], the inhibition at 10 µM under setting [1] was 101%. The pIC50 under setting [2] was above 6.52.

For `CC(C)c1cnn2c(NCc3cccc(NC(=O)C4CCCCN4C(=O)/C=C/CN(C)C)c3)nc(NC3CCOCC3)nc12` (centres unmarked) [Compound 74, (E)-1-(4-(dimethylamino)but-2-enoyl)-N-(3-(((8-isopropyl-2-((tetrahydro-2H-pyran-4-yl)amino)pyrazolo[1,5-a][1,3,5]triazin-4-yl)amino)methyl)phenyl)piperidine-2-carboxamide], under setting [1], the inhibition at 10 µM came to 99%. The pIC50 under setting [2] is above 6.52.

Regarding `CC(C)c1cnn2c(NCc3cccc(OC(=O)N4CCN(C(=O)/C=C/CN(C)C)CC4)c3)nc(NC3CCOCC3)nc12` [Compound 75, 3-(((8-isopropyl-2-((tetrahydro-2H-pyran-4-yl)amino)pyrazolo[1,5-a][1,3,5]triazin-4-yl)amino)methyl)phenyl(E)-4-(4-(dimethylamino)but-2-enoyl)piperazine-1-carboxylate], the inhibition at 10 µM was determined as 97%. Besides, the pIC50 (IC50, 60 min pre-incubation, 1 mM ATP) was above 6.52.

With `CC(C)c1cnn2c(NCc3cccc(NC(=O)C4CCN4C/C=C/C(=O)N(C)C)c3)nc(NC3CCOCC3)nc12` (centres unmarked) [Compound 76, (E)-1-(4-(dimethylamino)-4-oxobut-2-en-1-yl)-N-(3-(((8-isopropyl-2-((tetrahydro-2H-pyran-4-yl)amino)pyrazolo[1,5-a][1,3,5]triazin-4-yl)amino)methyl)phenyl)azetidine-2-carboxamide], the inhibition at 10 µM under setting [1] was 81%. Further, the negative-log IC50 (pIC50) under setting [2] is below 6.00.

For `CC(C)c1cnn2c(NCc3cccc(NC(=O)C4CCCCN4C(=O)/C=C/CN4CCCC4)c3)nc(NC3CCOCC3)nc12` (centres unmarked) [Compound 77, (E)-N-(3-(((8-isopropyl-2-((tetrahydro-2H-pyran-4-yl)amino)pyrazolo[1,5-a][1,3,5]triazin-4-yl)amino)methyl)phenyl)-1-(4-(pyrrolidin-1-yl)but-2-enoyl)piperidine-2-carboxamide], the inhibition at 10 µM under setting [1] is 99%. For the same compound, the pIC50 under setting [2] is above 6.52.

Consider `C=CC(=O)NCC(=O)Nc1cccc(CNc2nc(NC3CCOCC3)nc3c(C(C)C)cnn23)c1` [Compound 79, N-(2-((3-(((8-isopropyl-2-((tetrahydro-2H-pyran-4-yl)amino)pyrazolo[1,5-a][1,3,5]triazin-4-yl)amino)methyl)phenyl)amino)-2-oxoethyl)acrylamide], for which the inhibition at 10 µM under setting [1] came to 96%. Also, the pIC50 under setting [2] is above 6.52.

With `C=CC(=O)NC(C)C(=O)Nc1cccc(CNc2nc(NC3CCOCC3)nc3c(C(C)C)cnn23)c1` (centres unmarked) [Compound 80, N-(1-((3-(((8-isopropyl-2-((tetrahydro-2H-pyran-4-yl)amino)pyrazolo[1,5-a][1,3,5]triazin-4-yl)amino)methyl)phenyl)amino)-1-oxopropan-2-yl)acrylamide], the inhibition at 10 µM under setting [1] was found to be 94%. Moreover, the pIC50 under setting [2] is 6.00 to 6.52.

With `C=CC(=O)N(C)CC(=O)Nc1cccc(CNc2nc(NC3CCOCC3)nc3c(C(C)C)cnn23)c1` [Compound 81, N-(2-((3-(((8-isopropyl-2-((tetrahydro-2H-pyran-4-yl)amino)pyrazolo[1,5-a][1,3,5]triazin-4-yl)amino)methyl)phenyl)amino)-2-oxoethyl)-N-methylacrylamide], the inhibition at 10 µM under setting [1] was 98%. Also, the pIC50 under setting [2] is above 6.52.

Take `C=CC(=O)NC(C)(C)C(=O)Nc1cccc(CNc2nc(NC3CCOCC3)nc3c(C(C)C)cnn23)c1` [Compound 82, N-(1-((3-(((8-isopropyl-2-((tetrahydro-2H-pyran-4-yl)amino)pyrazolo[1,5-a][1,3,5]triazin-4-yl)amino)methyl)phenyl)amino)-2-methyl-1-oxopropan-2-yl)acrylamide]: the inhibition at 10 µM under setting [1] came out at 93%. The negative-log IC50 (pIC50) under setting [2] is 6.00 to 6.52.

`C=CC(=O)N(C)C1(C(=O)Nc2cccc(CNc3nc(NC4CCOCC4)nc4c(C(C)C)cnn34)c2)CC1` [Compound 84, N-(3-(((8-isopropyl-2-((tetrahydro-2H-pyran-4-yl)amino)pyrazolo[1,5-a][1,3,5]triazin-4-yl)amino)methyl)phenyl)-1-(N-methylacrylamido)cyclopropane-1-carboxamide]: the inhibition at 10 µM under setting [1] was determined as 97%. The pIC50 under setting [2] is above 6.52.

Turning to `C=CC(=O)N1CCC1C(=O)Nc1cccc(Nc2nc(NC3CCOCC3)nc3c(C(C)C)cnn23)c1` (centres unmarked) [Compound 86, 1-acryloyl-N-(3-((8-isopropyl-2-((tetrahydro-2H-pyran-4-yl)amino)pyrazolo[1,5-a][1,3,5]triazin-4-yl)amino)phenyl)azetidine-2-carboxamide], under setting [1], the inhibition at 10 µM stood at 99%. The negative-log IC50 (pIC50) under setting [2] is above 6.52.

In the case of `C=CC(=O)N[C@H]1CC[C@@H](C(=O)Nc2cccc(Nc3nc(NC4CCOCC4)nc4c(C(C)C)cnn34)c2)CC1` [Compound 87, (1,4-cis)-4-acrylamido-N-(3-((8-isopropyl-2-((tetrahydro-2H-pyran-4-yl)amino)pyrazolo[1,5-a][1,3,5]triazin-4-yl)amino)phenyl)cyclohexane-1-carboxamide], under setting [1], the “% inhibition @ 10 μM” value amounted to 32%.

On to `C=CC(=O)N1CCCC(C(=O)Nc2cccc(CNc3nc(OC4CCN(C)CC4)nc4ccnn34)c2)C1` (centres unmarked) [Compound 89, 1-acryloyl-N-(3-(((2-((1-methylpiperidin-4-yl)oxy)pyrazolo[1,5-a][1,3,5]triazin-4-yl)amino)methyl)phenyl)piperidine-3-carboxamide], for which the inhibition at 10 µM under setting [1] stood at 38%.

`C=CC(=O)N[C@H]1CC[C@@H](C(=O)Nc2cccc(CNc3nc(OC4CCOC4)nc4c(C(C)C)cnn34)c2)CC1` (stereo partly drawn) [Compound 100, (1,4-cis)-4-acrylamido-N-(3-(((8-isopropyl-2-((tetrahydrofuran-3-yl)oxy)pyrazolo[1,5-a][1,3,5]triazin-4-yl)amino)methyl)phenyl)cyclohexane-1-carboxamide]: under setting [1], the inhibition at 10 µM was found to be 82%. Further, under setting [2], the negative logarithm of the IC50 (pIC50) is 6.00 to 6.52.

In the case of `C=CC(=O)N1CCC(C(=O)Nc2cccc(CNc3nc(OCC(C)C)nc4c(C(C)C)cnn34)c2)C1` (centres unmarked) [Compound 102, 1-acryloyl-N-(3-(((2-isobutoxy-8-isopropylpyrazolo[1,5-a][1,3,5]triazin-4-yl)amino)methyl)phenyl)pyrrolidine-3-carboxamide], the inhibition at 10 µM under setting [1] came to 82%. The pIC50 under setting [2] is 6.00 to 6.52.

On to `C=CC(=O)N1CCC(C(=O)Nc2cccc(CNc3nc(OCCOC)nc4c(C(C)C)cnn34)c2)C1` (centres unmarked) [Compound 103, 1-acryloyl-N-(3-(((8-isopropyl-2-(2-methoxyethoxy)pyrazolo[1,5-a][1,3,5]triazin-4-yl)amino)methyl)phenyl)pyrrolidine-3-carboxamide], for which the inhibition at 10 µM under setting [1] is 80%. In addition, the negative logarithm of the IC50 (pIC50) under setting [2] was below 6.00.

Take `C=CC(=O)N1CCC(C(=O)Nc2cccc(CNc3nc(OCCOCCOC)nc4c(C(C)C)cnn34)c2)C1` (centres unmarked) [Compound 104, 1-acryloyl-N-(3-(((8-isopropyl-2-(2-(2-methoxyethoxy)ethoxy)pyrazolo[1,5-a][1,3,5]triazin-4-yl)amino)methyl)phenyl)pyrrolidine-3-carboxamide]: the inhibition at 10 µM under setting [1] turned out to be 78%. Besides, the pIC50 under setting [2] was below 6.00.

Consider `C=CC(=O)N1CCOC(C(=O)Nc2cccc(CNc3nc(OC4CCN(C)CC4)nc4c(C(C)C)cnn34)c2)C1` (centres unmarked) [Compound 112, 4-acryloyl-N-(3-(((8-isopropyl-2-((1-methylpiperidin-4-yl)oxy)pyrazolo[1,5-a][1,3,5]triazin-4-yl)amino)methyl)phenyl)morpholine-2-carboxamide], for which the inhibition at 10 µM under setting [1] stood at 99%. Further, the negative-log IC50 (pIC50) under setting [2] was above 6.52.

Consider `C=CC(=O)N1CCOCC1C(=O)Nc1cccc(CNc2nc(OC3CCN(C)CC3)nc3c(C(C)C)cnn23)c1` (centres unmarked) [Compound 113, 4-acryloyl-N-(3-(((8-isopropyl-2-((1-methylpiperidin-4-yl)oxy)pyrazolo[1,5-a][1,3,5]triazin-4-yl)amino)methyl)phenyl)morpholine-3-carboxamide], for which, under setting [2], the pIC50 was above 6.52.

On to `C=CC(=O)N[C@H]1CC[C@@H](C(=O)Nc2cc(CNc3nc(OC4CCN(C)CC4)nc4c(C(C)C)cnn34)ccc2F)CC1` [Compound 118, (1,4-cis)-4-acrylamido-N-(2-fluoro-5-(((8-isopropyl-2-((1-methylpiperidin-4-yl)oxy)pyrazolo[1,5-a][1,3,5]triazin-4-yl)amino)methyl)phenyl)cyclohexane-1-carboxamide], for which the inhibition at 10 µM under setting [1] was 93%. Under setting [2], the pIC50 was 6.00 to 6.52.

Usually inhibition stands for the drop in the measured response relative to a control, in per cent. What is called pIC50 is the IC50 on a negative log10 scale, so that one unit is a factor of ten.

The record behind these values is US11186576B2, “Pyrazolo[1,5-A][1,3,5]triazine and pyrazolo[1,5-A]pyrimidine derivatives as CDK inhibitors” (Aurigene Discovery Technologies Limited, priority 2015, dated 2021).
